How the values were obtained:
[1] = target: T1, Urotensin-2 receptor (Homo sapiens) (UniProt Q9UKP6); assay: Bias factor, ratio of deltalog(Tau/KA) for agonist activity at human UT receptor expressed in HEK293 cells co-expressing G12-polycistronic BRET biosensor assessed as induction of G12 activation by luminescence detection based BRET assay to deltalog(Tau/KA) for agonist activity at human UT receptor expressed in HEK293 cells co-expressing beta-arrestin1-polycistronic BRET biosensor assessed as induction of beta-arrestin1 recruitment by luminescence detection based BRET assay; assay type: functional, cell-based
T1 sequence (whole entry): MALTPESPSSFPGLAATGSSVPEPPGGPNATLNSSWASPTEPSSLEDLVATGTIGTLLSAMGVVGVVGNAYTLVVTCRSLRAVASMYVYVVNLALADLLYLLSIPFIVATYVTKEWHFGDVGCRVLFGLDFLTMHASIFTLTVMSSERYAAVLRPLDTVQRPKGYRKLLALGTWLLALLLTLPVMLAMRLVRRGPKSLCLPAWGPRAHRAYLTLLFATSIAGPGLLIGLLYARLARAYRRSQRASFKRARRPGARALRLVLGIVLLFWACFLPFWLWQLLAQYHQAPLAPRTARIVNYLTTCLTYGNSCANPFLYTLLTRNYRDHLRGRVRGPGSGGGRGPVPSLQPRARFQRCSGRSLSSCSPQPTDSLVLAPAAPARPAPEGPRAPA

[2] = target: T1, Urotensin-2 receptor (Homo sapiens); assay: Bias factor, ratio of deltalog(Tau/KA) for agonist activity at human UT receptor expressed in HEK293 cells co-expressing beta-arrestin1-polycistronic BRET biosensor assessed as induction of beta-arrestin1 recruitment by luminescence detection based BRET assay to deltalog(Tau/KA) for agonist activity at human UT receptor expressed in HEK293 cells co-expressing Gq-polycistronic BRET biosensor assessed as induction of Gq activation by luminescence detection based BRET assay; assay type: functional, cell-based
[3] = target: T2, Urotensin-2 receptor (Homo sapiens, UniProt Q9UKP6); assay: Displacement of [Na125I]-synthetic URP from human UT receptor expressed in HEK293 cell membranes incubated for 2 hrs by gamma-counting
T2 sequence (Q9UKP6 whole entry): T1 sequence (whole entry)

[4] = target: T1, Urotensin-2 receptor (Homo sapiens); assay: Selectivity index, change in deltalog(Tau/KA) for agonist activity at human UT receptor expressed in HEK293 cells co-expressing G12-polycistronic BRET biosensor assessed as induction of G12 activation by luminescence detection based BRET assay to deltalog(Tau/KA) for agonist activity at human UT receptor expressed in HEK293 cells co-expressing Gq-polycistronic BRET biosensor assessed as induction of Gq activation by luminescence detection based BRET assay; assay type: functional, cell-based
[5] = target: T1, Urotensin-2 receptor (Homo sapiens); assay: Agonist activity at human UT receptor expressed in HEK293 cells co-expressing G12-polycistronic BRET biosensor assessed as induction of G12 activation measured for 5 mins by luminescence detection based BRET assay relative to 10 uM URP; assay type: functional, cell-based
[6] = target: T1, Urotensin-2 receptor (Homo sapiens); assay: Agonist activity at human UT receptor expressed in HEK293 cells co-expressing beta-arrestin1-polycistronic BRET biosensor assessed as induction of beta-arrestin1 recruitment measured for 5 mins by luminescence detection based BRET assay relative to 10 uM URP; assay type: functional, cell-based
[7] = target: T1, Urotensin-2 receptor (Homo sapiens); assay: Agonist activity at human UT receptor expressed in HEK293 cells co-expressing Gq-polycistronic BRET biosensor assessed as induction of Gq activation measured for 5 mins by luminescence detection based BRET assay relative to 10 uM URP; assay type: functional, cell-based
[8] = target: T2, Urotensin-2 receptor; assay: Agonist activity at human UT receptor expressed in HEK293 cells co-expressing G12-polycistronic BRET biosensor assessed as induction of G12 activation measured for 5 mins by luminescence detection based BRET assay; assay type: functional, cell-based
[9] = target: T1, Urotensin-2 receptor (Homo sapiens); assay: Bias factor, ratio of deltalog(Tau/KA) for agonist activity at human UT receptor expressed in HEK293 cells co-expressing beta-arrestin1-polycistronic BRET biosensor assessed as induction of beta-arrestin1 recruitment by luminescence detection based BRET assay to deltalog(Tau/KA) for agonist activity at human UT receptor expressed in HEK293 cells co-expressing G12-polycistronic BRET biosensor assessed as induction of G12 activation by luminescence detection based BRET assay; assay type: functional, cell-based
[10] = target: T3, Urotensin-2 receptor (Rattus norvegicus, UniProt P49684); assay: Agonist activity at UT receptor in Sprague-Dawley rat thoracic aortic ring assessed as induction of contraction; assay type: functional
T3 sequence (P49684 whole entry): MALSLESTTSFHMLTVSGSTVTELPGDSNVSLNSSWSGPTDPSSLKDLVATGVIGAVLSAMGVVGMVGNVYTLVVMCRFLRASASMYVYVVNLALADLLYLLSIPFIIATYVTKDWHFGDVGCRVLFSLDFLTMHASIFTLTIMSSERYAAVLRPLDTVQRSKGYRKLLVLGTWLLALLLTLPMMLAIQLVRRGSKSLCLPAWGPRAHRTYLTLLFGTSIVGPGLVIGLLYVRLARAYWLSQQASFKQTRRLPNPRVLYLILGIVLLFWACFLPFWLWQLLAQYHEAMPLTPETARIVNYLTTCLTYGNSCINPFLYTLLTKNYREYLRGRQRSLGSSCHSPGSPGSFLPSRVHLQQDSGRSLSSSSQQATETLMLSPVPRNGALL

[11] = target: T4, Urotensin-2 receptor (Rattus norvegicus) (UniProt P49684); assay: Agonist activity at UT receptor in Sprague-Dawley rat thoracic aortic ring assessed as induction of contraction relative to KCl-induced contraction; assay type: functional
T4 sequence (whole entry): T3 sequence (P49684 whole entry)

[12] = target: T2, Urotensin-2 receptor; assay: Agonist activity at human UT receptor expressed in HEK293 cells co-expressing Gq-polycistronic BRET biosensor assessed as induction of Gq activation measured for 5 mins by luminescence detection based BRET assay; assay type: functional, cell-based
[13] = target: T1, Urotensin-2 receptor (Homo sapiens); assay: Selectivity index, change in deltalog(Tau/KA) for agonist activity at human UT receptor expressed in HEK293 cells co-expressing Gq-polycistronic BRET biosensor assessed as induction of Gq activation by luminescence detection based BRET assay to deltalog(Tau/KA) for agonist activity at human UT receptor expressed in HEK293 cells co-expressing beta-arrestin1-polycistronic BRET biosensor assessed as induction of beta-arrestin1 recruitment by luminescence detection based BRET assay; assay type: functional, cell-based
[14] = target: T1, Urotensin-2 receptor (Homo sapiens); assay: Bias factor, ratio of deltalog(Tau/KA) for agonist activity at human UT receptor expressed in HEK293 cells co-expressing Gq-polycistronic BRET biosensor assessed as induction of Gq activation by luminescence detection based BRET assay to deltalog(Tau/KA) for agonist activity at human UT receptor expressed in HEK293 cells co-expressing beta-arrestin1-polycistronic BRET biosensor assessed as induction of beta-arrestin1 recruitment by luminescence detection based BRET assay; assay type: functional, cell-based
[15] = target: T1, Urotensin-2 receptor (Homo sapiens); assay: Bias factor, ratio of deltalog(Tau/KA) for agonist activity at human UT receptor expressed in HEK293 cells co-expressing G12-polycistronic BRET biosensor assessed as induction of G12 activation by luminescence detection based BRET assay to deltalog(Tau/KA) for agonist activity at human UT receptor expressed in HEK293 cells co-expressing Gq-polycistronic BRET biosensor assessed as induction of Gq activation by luminescence detection based BRET assay; assay type: functional, cell-based
[16] = target: T1, Urotensin-2 receptor (Homo sapiens); assay: Selectivity index, change in deltalog(Tau/KA) for agonist activity at human UT receptor expressed in HEK293 cells co-expressing beta-arrestin1-polycistronic BRET biosensor assessed as induction of beta-arrestin1 recruitment by luminescence detection based BRET assay to deltalog(Tau/KA) for agonist activity at human UT receptor expressed in HEK293 cells co-expressing G12-polycistronic BRET biosensor assessed as induction of G12 activation by luminescence detection based BRET assay to; assay type: functional, cell-based
[17] = target: T2, Urotensin-2 receptor; assay: Agonist activity at human UT receptor expressed in HEK293 cells co-expressing beta-arrestin1-polycistronic BRET biosensor assessed as induction of beta-arrestin1 recruitment measured for 5 mins by luminescence detection based BRET assay; assay type: functional, cell-based
[18] = target: T1, Urotensin-2 receptor (Homo sapiens); assay: Bias factor, ratio of deltalog(Tau/KA) for agonist activity at human UT receptor expressed in HEK293 cells co-expressing Gq-polycistronic BRET biosensor assessed as induction of Gq activation by luminescence detection based BRET assay to deltalog(Tau/KA) for agonist activity at human UT receptor expressed in HEK293 cells co-expressing G12-polycistronic BRET biosensor assessed as induction of G12 activation by luminescence detection based BRET assay; assay type: functional, cell-based
[19] = target: T4, Urotensin-2 receptor (Rattus norvegicus); assay: Antagonist activity at UT receptor in Sprague-Dawley rat thoracic aortic ring assessed as reduction in urotensin-2-induced contraction by measuring Emax for human urotensin-2-induced contraction at 1 uM pre-incubated for 30 mins before urotensin-2 stimulation relative to KCl-induced contraction (reference value: 101 +/- 4%); assay type: functional
[20] = target: T4, Urotensin-2 receptor (Rattus norvegicus); assay: Antagonist activity at UT receptor in Sprague-Dawley rat thoracic aortic ring assessed as reduction in URP-induced contraction by measuring Emax for […] at 1 uM pre-incubated for 30 mins […] relative to KCl-induced contraction (reference value: 107 +/- 3%); assay type: functional

| Compound | fold change (FC) [1] | fold change (FC) [2] | IC50 [3] [nM] | deltalog(Tau/KA) [4] | Emax [5] [%] | Emax [6] [%] | Emax [7] [%] | EC50 [8] [nM] | fold change (FC) [9] | EC50 [10] [nM] | Emax [11] [%] | EC50 [12] [nM] | selectivity index, deltadeltalog(Tau/KA) [13] | fold change (FC) [14] | fold change (FC) [15] | deltadeltalog(Tau/KA) (beta-arrestin1 selectivity index) [16] | EC50 [17] [nM] | fold change (FC) [18] | Emax [19] [%] | Emax [20] [%] |
| --- | --- | --- | --- | --- | --- | --- | --- | --- | --- | --- | --- | --- | --- | --- | --- | --- | --- | --- | --- | --- |
| CC(C)[C@H](NC(=O)[C@@H]1CSSC[C@H](NC(=O)[C@H](C)N)C(=O)N[C@@H](Cc2ccc(I)cc2)C(=O)N[C@@H](Cc2c[nH]c3ccccc23)C(=O)N[C@@H](CCCCN)C(=O)N[C@@H](Cc2ccc(O)cc2)C(=O)N1)C(=O)O | 0.4 | 2.1 | 5.62 | -0.12 | 73 | 101 | 97 | 47.9 | 2.8 | 31.6 | 53 | 10.7 | -0.32 | 0.5 | 0.8 | 0.45 | 182 | 1.3 |  |  |
| CC(C)[C@H](NC(=O)[C@@H]1CSSC[C@H](NC(=O)[C@@H](N)CC(=O)O)C(=O)N[C@@H](Cc2ccc(I)cc2)C(=O)N[C@@H](Cc2c[nH]c3ccccc23)C(=O)N[C@@H](CCCCN)C(=O)N[C@@H](Cc2ccc(O)cc2)C(=O)N1)C(=O)O | 1.3 | 1.2 | 3.98 | 0.22 | 94 | 104 | 100 | 36.3 | 0.8 | 10.5 | 112 | 7.08 | -0.1 | 0.8 | 1.7 | -0.13 | 191 | 0.6 |  |  |
| CC(C)[C@H](NC(=O)[C@@H]1CSSC[C@H](NC(=O)[C@@H](C)N)C(=O)N[C@@H](Cc2ccc(C#Cc3ccccc3)cc2)C(=O)N[C@@H](Cc2c[nH]c3ccccc23)C(=O)N[C@@H](CCCCN)C(=O)N[C@@H](Cc2ccc(O)cc2)C(=O)N1)C(=O)O | 5.6 | 2.2 |  | 1.08 | 72 | 36 | 101 |  | 0.2 |  | 8 |  | -0.34 | 0.5 | 12.1 | -0.75 |  | 0.1 | 100 | 104 |
| CC(C)[C@H](NC(=O)[C@@H]1CSSC[C@H](NC(=O)[C@@H](C)N)C(=O)N[C@@H](Cc2ccc(-c3ccccc3)cc2)C(=O)N[C@@H](Cc2c[nH]c3ccccc23)C(=O)N[C@@H](CCCCN)C(=O)N[C@@H](Cc2ccc(O)cc2)C(=O)N1)C(=O)O | 3.5 | 14.4 |  | 1.7 | 74 | 60 | 102 |  | 0.3 |  | 10 |  | -1.16 | 0.1 | 50 | -0.54 |  | 0 | 95 | 91 |
| CC(C)[C@H](NC(=O)[C@@H]1CSSC[C@H](NC(=O)[C@H](C)N)C(=O)N[C@@H](Cc2ccccc2)C(=O)N[C@@H](Cc2c[nH]c3ccccc23)C(=O)N[C@@H](CCCCN)C(=O)N[C@@H](Cc2ccc(O)cc2)C(=O)N1)C(=O)O | 1 | 1 | 19.5 | 0 |  |  |  | 91.2 | 1 | 6.92 | 107 | 3.63 | 0 | 1 | 1 | 0 | 145 | 1 |  |  |

— ChEMBL document CHEMBL4196183, “Discovery of New Allosteric Modulators of the Urotensinergic System through Substitution of the Urotensin II-Related Peptide (URP) Phenylalanine Residue” (J Med Chem, 2018)
